Results reported in patent US9126957B2, “Selective glycosidase inhibitors and uses thereof” (MERCK SHARP & DOHME CORP., priority 2011, dated 2015).

Target: human O-GlcNAcase (Homo sapiens (Human), UniProt O60502)
Assay: Fluorescence-based hOGA assay for determination of KI values for inhibition of O-GlcNAcase activity
Format: biochemical
Settings: purified human O-GlcNAcase, 4-Methylumbelliferyl N-acetyl-β-D-glucosaminide substrate, pH 7.0, Cheng-Prusoff
Procedure: Assay for determination of KI values for inhibition of O-GlcNAcase activity Experimental procedure for kinetic analyses
Enzymatic reactions are carried out in a reaction containing 50 mM NaH2PO4, 100 mM NaCl and 0.1% BSA (pH 7.0) using 2 mM 4-Methylumbelliferyl N-acetyl-β-D-glucosaminide dihydrate (Sigma M2133) dissolved in ddH2O, as a substrate. The amount of purified human O-GlcNAcase enzyme used in the reaction is 0.7 nM. Test compound of varying concentrations is added to the enzyme prior to initiation of the reaction. The reaction is performed at room temperature in a 96-well plate and is initiated with the addition of substrate. The production of fluorescent product is measured every 60 sec for 45 min with a Tecan Infinite M200 plate-reader with excitation at 355 nm and emission detected at […], with 4-Methylumbelliferone (Sigma M1381) used to produce a standard curve. The slope of product production is determined for each concentration of compound tested and plotted, using standard curve fitting algorithms for sigmoidal dose response curves. The values for a four parameter logistic curve fit of the data are determined.
KI values are determined using the Cheng-Prusoff equation; the Km of O-GlcNacase for substrate is 0.2 mM.

Sequence of human O-GlcNAcase (O60502 whole entry): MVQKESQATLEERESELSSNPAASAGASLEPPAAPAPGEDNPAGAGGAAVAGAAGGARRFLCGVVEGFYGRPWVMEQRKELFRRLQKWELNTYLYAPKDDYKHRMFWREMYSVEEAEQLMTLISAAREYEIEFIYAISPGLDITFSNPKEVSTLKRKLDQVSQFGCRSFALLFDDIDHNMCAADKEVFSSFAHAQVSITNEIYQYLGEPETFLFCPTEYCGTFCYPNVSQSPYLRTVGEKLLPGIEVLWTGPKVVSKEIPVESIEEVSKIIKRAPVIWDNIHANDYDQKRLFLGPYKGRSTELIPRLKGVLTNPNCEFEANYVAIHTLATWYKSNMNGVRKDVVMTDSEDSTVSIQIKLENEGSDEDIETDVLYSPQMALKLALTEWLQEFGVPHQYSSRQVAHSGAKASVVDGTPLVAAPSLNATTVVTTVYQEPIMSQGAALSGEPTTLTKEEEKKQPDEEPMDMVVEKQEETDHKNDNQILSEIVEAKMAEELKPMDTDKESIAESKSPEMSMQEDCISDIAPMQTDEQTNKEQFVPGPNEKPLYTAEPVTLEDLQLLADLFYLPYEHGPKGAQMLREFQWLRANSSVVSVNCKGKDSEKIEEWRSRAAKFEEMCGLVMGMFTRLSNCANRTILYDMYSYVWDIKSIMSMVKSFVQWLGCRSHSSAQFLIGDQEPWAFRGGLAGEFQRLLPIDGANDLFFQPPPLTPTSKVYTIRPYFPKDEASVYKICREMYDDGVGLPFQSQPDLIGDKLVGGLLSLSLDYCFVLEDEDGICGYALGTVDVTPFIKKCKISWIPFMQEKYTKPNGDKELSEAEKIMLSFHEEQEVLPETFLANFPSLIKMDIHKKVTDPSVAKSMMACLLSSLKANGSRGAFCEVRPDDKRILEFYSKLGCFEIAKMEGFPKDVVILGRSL

| SMILES | Ki [nM] |
| --- | --- |
| CCCNC1=N[C@@H]2[C@@H](O)[C@H](O)[C@@H]([C@H](C)O)C[C@@H]2O1 [Example 5, (3aR,4R,5R,6R,7aS)-6-((S)-1-hydroxyethyl)-2-(propylamino)-3a,4,5,6,7,7a-hexahydrobenzo[d] oxazole-4,5-diol] | 7.1 |
| CNC1=N[C@@H]2[C@@H](O)[C@H](O)[C@@H]([C@H](C)O)C[C@@H]2O1 [Example 6, (3aR,4R,5R,6R,7aS)-6-((S)-1-hydroxyethyl)-2-(methylamino)-3a,4,5,6,7,7a-hexahydrobenzo[d] oxazole-4,5-diol] | 0.26 |
| C[C@@H](O)[C@H]1C[C@@H]2SC(N(C)C)=N[C@@H]2[C@@H](O)[C@@H]1O [Example 9] | 14 |
| C[C@H](O)[C@H]1C[C@@H]2SC(N(C)C)=N[C@@H]2[C@@H](O)[C@@H]1O [Example 10, (3aR,4R,5R,6R,7aS)-2-(dimethylamino)-6-((S)-1-hydroxyethyl)-3a,4,5,6,7,7a-hexahydrobenzo[d]thiazole-4,5-diol] | 0.14 |

The remaining compounds from weak to strong by Ki, led by results:

| Ki [nM] | SMILES |
| --- | --- |
| 1670 | CCCNC1=N[C@@H]2[C@@H](O)[C@H](O)[C@@H](C(C)(C)O)C[C@@H]2O1 [Example 8, (3aR,4R,5R, 6S,7aS)-6-(2-hydroxy-propan-2-yl)-2-(propylamino)-3a,4,5,6,7,7a-hexahydro-benzo[d] oxazole-4,5-diol] |
| 437 | C[C@@H](O)[C@@H]1C[C@H]2OC(N(C)C)=N[C@H]2[C@H](O)[C@H]1O (single isomer, unassigned) [Example 4] |
| 93 | CCNC1=N[C@@H]2[C@@H](O)[C@H](O)[C@@H](C(C)(C)O)C[C@@H]2O1 [Example 7, (3aR,4R,5R, 6S,7aS)-2-(ethylamino)-6-(2-hydroxy-propan-2-yl)-3a,4,5,6,7,7a-hexahydro-benzo[d] oxazole-4,5-diol] |
| 54 | CN(C)C1=N[C@@H]2[C@@H](O)[C@H](O)[C@@H](C(C)(C)O)C[C@@H]2O1 [Example 3, (3aR,4R,5R,6S,7aS)-2-(Dimethylamino)-6-(2-hydroxypropan-2-yl)-3a,4,5,6,7,7a-hexahydro-benzo[d]oxazole-4,5-diol] |
| 4.5 | C[C@@H](O)[C@H]1C[C@@H]2OC(N(C)C)=N[C@@H]2[C@@H](O)[C@@H]1O [Example 1A, (3aR,4R,5R,6R,7aS)-2-(Dimethylamino)-6-((R)-1-hydroxyethyl)-3a,4,5,6,7,7a-hexahydrobenzo[d]oxazole-4,5-diol] |
| 0.26 | C[C@H](O)[C@H]1C[C@@H]2OC(N(C)C)=N[C@@H]2[C@@H](O)[C@@H]1O [Example 2, (3aR,4R,5R,6R,7aS)-2-(Dimethylamino)-6-((S)-1-hydroxyethyl)-3a,4,5,6,7,7a-hexahydro-benzo[d]oxazole-4,5-diol] |
